According to publication PMC11562494 (BMC Chemistry, 2024):
Converted amounts (≈) assume the structure as drawn. “And” between values parts separate entries of the source, which are not always exact repeats. Equal values may be shown once. Read-outs that look alike come from different tables or passages of the source.

Key:
[1] = tested on: Escherichia coli; conditions: cited from earlier work
[2] = tested on: Pseudomonas aeruginosa; conditions: cited from earlier work
[3] = tested on: S. aureus; conditions: cited from earlier work
[4] = tested on: WI38 cells; conditions: read-out: WI-38 IC50 ± SD; normal WI38 cells, MTT; cited from earlier work
[5] = tested on: E. coli; experiment: Time-kill kinetic test; assay type: cell-based; conditions: 1x MIC
[6] = tested on: E. coli; experiment: Broth dilution MIC/MBC; assay type: cell-based, Escherichia coli
[7] = tested on: S. cerevisiae; experiment: Broth dilution MIC/MFC; assay type: cell-based, Saccharomyces cerevisiae
[8] = tested on: S. faecalis; experiment: Broth dilution MIC/MBC; assay type: cell-based, Streptococcus faecalis
[9] = tested on: WI38 cells; experiment: In vitro cytotoxicity MTT assay; conditions: Homo sapiens, WI-38, 48 h, read-out: WI-38 IC50 ± SD
[10] = target: DNA gyrase A (Escherichia coli, UniProt P0AES4); experiment: DNA gyrase supercoiling assay; assay type: biochemical; conditions: IC50 ± SD DNA gyrase A, E. coli DNA gyrase supercoiling
[11] = tested on: E. cloacae; experiment: Broth dilution MIC/MBC; assay type: cell-based, Enterobacter cloacae
[12] = tested on: C. albicans; experiment: Broth dilution MIC/MFC; assay type: cell-based, Candida albicans
[13] = tested on: B. pumilus; experiment: Broth dilution MIC/MBC; assay type: cell-based, Bacillus pumilus
[14] = tested on: methicillin-resistant S. aureus; conditions: cited from earlier work
[15] = tested on: Aspergillus fumigatus; conditions: cited from earlier work
[16] = tested on: C. albicans; conditions: cited from earlier work
[17] = tested on: E. coli; conditions: cited from earlier work
[18] = tested on: B. subtilis; conditions: cited from earlier work
[19] = tested on: S. aureus; conditions: cited from earlier work; remark: listed apart in the source

DNA gyrase A, sequence (P0AES4 whole entry): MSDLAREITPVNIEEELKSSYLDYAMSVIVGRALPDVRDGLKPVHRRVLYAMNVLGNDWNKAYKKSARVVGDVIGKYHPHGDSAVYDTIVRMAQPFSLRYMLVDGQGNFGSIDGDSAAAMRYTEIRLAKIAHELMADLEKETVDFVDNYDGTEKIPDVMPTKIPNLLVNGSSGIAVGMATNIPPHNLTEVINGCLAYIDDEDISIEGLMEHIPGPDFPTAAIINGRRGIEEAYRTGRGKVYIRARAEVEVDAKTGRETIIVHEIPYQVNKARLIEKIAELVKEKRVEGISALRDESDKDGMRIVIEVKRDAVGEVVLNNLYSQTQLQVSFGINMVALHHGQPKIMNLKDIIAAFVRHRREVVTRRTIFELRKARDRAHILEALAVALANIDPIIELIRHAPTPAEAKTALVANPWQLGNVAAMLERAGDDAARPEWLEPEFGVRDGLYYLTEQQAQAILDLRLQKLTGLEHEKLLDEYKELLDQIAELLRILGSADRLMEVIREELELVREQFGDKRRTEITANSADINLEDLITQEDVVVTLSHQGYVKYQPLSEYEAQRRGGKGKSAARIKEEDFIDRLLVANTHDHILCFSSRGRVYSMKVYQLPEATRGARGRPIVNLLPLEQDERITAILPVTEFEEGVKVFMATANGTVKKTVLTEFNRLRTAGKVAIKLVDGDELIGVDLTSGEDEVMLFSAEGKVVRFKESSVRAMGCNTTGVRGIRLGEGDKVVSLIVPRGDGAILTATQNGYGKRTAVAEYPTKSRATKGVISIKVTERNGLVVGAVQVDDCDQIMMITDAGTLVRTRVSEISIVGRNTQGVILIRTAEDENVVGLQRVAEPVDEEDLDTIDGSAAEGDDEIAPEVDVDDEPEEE

[H]/N=C(/N)N[C@H]1[C@H](O)[C@@H](O)[C@H](O[C@@H]2O[C@@H](C)[C@](O)(C=O)[C@H]2O[C@@H]2O[C@@H](CO)[C@H](O)[C@@H](O)[C@@H]2NC)[C@@H](N/C(N)=N\[H])[C@@H]1O [streptomycin]
IZ E. coli [1]: 25 mm | IZ Pseudomonas aeruginosa [2]: 24 mm

O=C(O)c1cn(C2CC2)c2cc(N3CCNCC3)c(F)cc2c1=O [Cipro., ciprofloxacin]
IZ S. aureus [3]: 22 mm | IC50 [4]: 23.9 ± 1.58 µM

N#Cc1c(-c2ccc(OCc3ccccc3)cc2)c(C(N)=O)c(N)n(N)c1=O [Compound 3d, 1,2-diamino-4-(4-(benzyloxy)phenyl)-5-cyano-6-oxo-1,6-dihydropyridine-3-carboxamide]
Time to bactericidal activity against E. coli [5]: 90 to 120 min and 90 min | MBC/ MIC ratio E. coli [6]: 4 | MBC ([6]; Escherichia coli, read-out: MBC E. coli): 15.6 µg/mL (≈ 41.6 µM) | MIC ([6]; Escherichia coli, read-out: MIC E. coli): 3.91 µg/mL (≈ 10.4 µM) | MFC/ MIC ratio S. cerevisiae [7]: 2 | MFC ([7]; Saccharomyces cerevisiae, read-out: MFC S. cerevisiae): 62.5 µg/mL (≈ 166 µM) | MIC ([7]; Saccharomyces cerevisiae, read-out: MIC S. cerevisiae): 31.3 µg/mL (≈ 83.4 µM) | MBC/ MIC ratio S. faecalis [8]: 4 | MBC ([8]; Enterococcus faecalis, read-out: MBC S. faecalis): 62.5 µg/mL (≈ 166 µM) | MIC ([8]; Enterococcus faecalis, read-out: MIC S. faecalis): 15.6 µg/mL (≈ 41.6 µM) | IC50 [9]: 48.8 ± 2.07 µM | IC50 [10]: 4.48 µM and 4.49 µM | MBC/ MIC ratio E. cloacae [11]: 4 | MBC ([11]; Enterobacter cloacae, read-out: MBC E. cloacae): 31.3 µg/mL (≈ 83.4 µM) | MIC ([11]; Enterobacter cloacae, read-out: MIC E. cloacae): 7.81 µg/mL (≈ 20.8 µM) | MFC/ MIC ratio C. albicans [12]: 4 | MFC ([12]; Candida albicans, read-out: MFC C. albicans): 500 µg/mL (≈ 1330 µM) | MBC/ MIC ratio B. pumilus [13]: 4 | MBC ([13]; Bacillus pumilus, read-out: MBC B. pumilus): 62.5 µg/mL (≈ 166 µM) | MIC ([13]; Bacillus pumilus, read-out: MIC B. pumilus): 15.6 µg/mL (≈ 41.6 µM)

CN[C@H](CC(C)C)C(=O)N[C@H]1C(=O)N[C@@H](CC(N)=O)C(=O)N[C@H]2C(=O)N[C@H]3C(=O)N[C@H](C(=O)N[C@H](C(=O)O)c4cc(O)cc(O)c4-c4cc3ccc4O)[C@H](O)c3ccc(c(Cl)c3)Oc3cc2cc(c3O[C@@H]2O[C@H](CO)[C@@H](O)[C@H](O)[C@H]2O[C@H]2C[C@](C)(N)[C@H](O)[C@H](C)O2)Oc2ccc(cc2Cl)[C@H]1O [vancomycin]
MIC methicillin-resistant S. aureus [14]: 1 µg/mL (≈ 0.69 µM)

C[C@@H]1[C@H](O)[C@@H](C)/C=C/C=C/C=C/C=C/C=C/C=C/C=C/[C@H](O[C@@H]2O[C@H](C)[C@@H](O)[C@H](N)[C@@H]2O)C[C@@H]2O[C@](O)(C[C@@H](O)C[C@@H](O)[C@H](O)CC[C@@H](O)C[C@@H](O)CC(=O)O[C@H]1C)C[C@H](O)[C@H]2C(=O)O [amphotericin B]
MIC Aspergillus fumigatus [15]: 1.95 µg/mL (≈ 2.11 µM) | MIC C. albicans [16]: 1.95 µg/mL (≈ 2.11 µM)

CC1(C)S[C@@H]2[C@H](NC(=O)[C@H](N)c3ccc(O)cc3)C(=O)N2[C@H]1C(=O)O [amoxicillin]
MIC E. coli [17]: 0.01 µM (≈ 3.65 ng/mL)

N[C@@H](C(=O)N[C@@H]1C(=O)N2C(C(=O)O)=C(Cl)CS[C@H]12)c1ccccc1 [cefaclor]
MIC B. subtilis [18]: 2.4 µg/mL (≈ 6.53 µM) | MIC S. aureus [19]: 2.4 µg/mL (≈ 6.53 µM)
